In patent US20260169002A1, “PROFILING NEWLY-SYNTHESIZED GLYCOPROTEINS AS MOLECULAR SIGNATURES OF INJURY IN DONOR ORGANS” (Carnegie Mellon University, priority 2022, published 2026):

Legend:
healthy rat lungs = assay: Effect of Ac4GalNAz probe on lung graft quality during EVLP (morphology, physiology); conditions: 100 μM Ac4GalNAz vs vehicle perfusion, monitored every hour, 4-hour EVLP
Protocol: (§1) Ex vivo lung perfusion (EVLP) in rats: EVLP was performed using a commercially available rodent EVLP system (IL-2 Isolated Perfused Rat or Guinea Pig Lung System; Harvard Apparatus, Holliston, MA) as described elsewhere (Noda et al., 2014, Eur J Cardio-Thorac Surg., 45:e54-60; and (Noda et al., 2021, Sci Rep., 11:12265). Acellular Steen solution (XVIVO Perfusion AB, Denver, CO) was used for perfusate and lungs were medicated with methylprednisolone (SOLU-MEDROL®; Pfizer, Inc., New York, NY) and cephalosporin (Cefazolin; WG Critical Care LLC, Paramus, NJ) equally in all experimental groups using EVLP. […] Pulmonary artery pressure, peak airway pressure, and airway flow were monitored continuously, and dynamic lung compliance and pulmonary vascular resistance were also analyzed. […]
Airspace morphology evaluation: Following EVLP, the lungs receiving Ac4GaIN Az or vehicle control administration were fixed in Formalin, embedded in paraffin, and sectioned to a thickness of 5 μm. […] Horizontal and vertical mean linear intercepts of each image were measured by Fiji software (Schindelin et al., 2012, Exp Rev Resp Med., 11:119-128), following a protocol described elsewhere (Crowley et al., 2019, BMC Pulm Med., 19:206) The mean values of horizontal and vertical mean linear intercepts of the three images were calculated as the estimated airspace size average of each lung section.

post-EVLP lungs = assay: LC-MS/MS proteomic analysis of Input and Eluate samples of lungs with or without Ac4GalNAz during EVLP; set-up: species or system rat; conditions: before affinity enrichment
Protocol: Chemoselective enrichment of azide-tagged proteins: Cellular protein extracts of the lungs were reacted with Alkyne-PEG4-desthiobiotin (Click Chemistry Tools, 1109) under CuAAC conditions. Proteins were precipitated with four volumes of ice-cold acetone at −20° C. overnight to remove unreacted Alkyne-PEG4-desthiobiotin. The protein pellets were air-dried and re-dissolved in 2% SDS in PBS (pH 7.40), and then saved as Input samples. Following quantification by BCA, an aliquot of each Input sample containing 1.7 mg of protein was introduced to 75 μL streptavidin-conjugated resin (Thermo Fisher Scientific; 53117) for desthiobiotinylated protein pull-down. Following a 3-hour binding period, Supernatants were collected and the resins were washed 7 times for 15 minutes each with 2% SDS, 40 mM additional NaCl in PBS (pH 7.40). The pulled-down proteins were eluted with 30 mM biotin in 2% SDS, 40 mM additional NaCl in PBS (pH 7.40) (Eluting buffer) at room temperature for 1 hour. […] Protein concentrations of the Eluate samples were determined by BCA assay, and the eluates were then stored at −80° C. for SDS-PAGE and proteomic analysis. […]
Samples were analyzed using a UPLC-MS/MS system consisting of an Easy-nLC 1200 ultra-high-pressure liquid chromatography system and an Orbitrap Fusion Lumos mass spectrometer (Thermo Fisher Scientific). […]

human lungs = assay: Bioorthogonal azide labeling during EVLP, histological detection in human lung sections; conditions: Ac4GalNAz vs vehicle in perfusate, 6 hour EVLP
Protocol: Immunostaining: Rehydrated rat or human lung sections were incubated with antigen unmasking solution at 95° C. for 20 minutes. After cooling down, the sections were reacted with Alkyne-PEG4-biotin (Click Chemistry Tools, TA105) under copper-catalyzed cycloaddition (CuAAC) conditions (Rostovtsev et al., 2002, Angewandte Chemie., 114:2708-2711), or reacted without copper catalyst as a control. All samples were blocked with 1% bovine serum albumin (BSA) in PBS for 20 minutes and incubated with a primary antibody against Laminin (Abcam, Cambridge, UK; ab11575) at a dilution of 1:500. The slides were then stained with streptavidin conjugated to ALEXA FLUOR®-647 (Invitrogen, S21374) and Donkey-anti-Rabbit IgG conjugated to ALEXA FLUOR®-488 (Invitrogen, A32790) at a dilution of 1:500. All slides were mounted with DAPI-containing Fluoromount solution (SouthernBiotech, Birmingham, AL; 0100-20). Single-field images were taken using confocal microscopy and stitched images were taken by EVOS FL Auto 2 Imaging System (Thermo Fisher Scientific, Waltham, MA). For quantification, three random fields were taken in each lung section. Azide >biotin intensities for each field taken were measured by Fiji software (Schindelin et al., supra). Laminin channels were converted to 8-bit and intensities were measured for Laminin coverage areas. […]

rat lungs = assay: Bioorthogonal azide labeling of NewS-glycoproteins during EVLP, histological detection; conditions: 100 μM Ac4GalNAz vs 0.1% DMSO in Steen solution, 4-hour EVLP
Protocol: as §1
Immunostaining: Rehydrated rat or human lung sections were incubated with antigen unmasking solution at 95° C. for 20 minutes. […] For quantification, three random fields were taken in each lung section. Azide >biotin intensities for each field taken were measured by Fiji software (Schindelin et al., supra). Laminin channels were converted to 8-bit and intensities were measured for Laminin coverage areas. […]

Lung compliance during EVLP (healthy rat lungs): no significant differences
Pulmonary vascular resistance during EVLP (healthy rat lungs): no significant differences
Effect on overall lung proteome (Input samples, Pearson correlation, hierarchical clustering) (post-EVLP lungs): did not significantly alter
SMILES: CC(=O)OC[C@H]1OC(OC(C)=O)[C@H](NC(=O)CN=[N+]=[N-])[C@@H](OC(C)=O)[C@H]1OC(C)=O (some centres unmarked) [Ac4GalNAz, N-azidoacetylgalactosamine-tetraacylated]
Azide labeling of lung tissue (azide→biotin fluorescence) (human lungs): also was observed
Azide labeling of lung tissue (azide→biotin fluorescence) (rat lungs): robust and specific azide labeling
